Test results as given in PMC3319082 (Bioorganic & medicinal chemistry letters, 2011).

Target: rat mGlu4 (Rattus norvegicus, UniProt P31423)
Format: cell-based
Conditions: rat mGlu4/GIRK cells, Fig. 2

Chain of rat mGlu4 (P31423 33-912): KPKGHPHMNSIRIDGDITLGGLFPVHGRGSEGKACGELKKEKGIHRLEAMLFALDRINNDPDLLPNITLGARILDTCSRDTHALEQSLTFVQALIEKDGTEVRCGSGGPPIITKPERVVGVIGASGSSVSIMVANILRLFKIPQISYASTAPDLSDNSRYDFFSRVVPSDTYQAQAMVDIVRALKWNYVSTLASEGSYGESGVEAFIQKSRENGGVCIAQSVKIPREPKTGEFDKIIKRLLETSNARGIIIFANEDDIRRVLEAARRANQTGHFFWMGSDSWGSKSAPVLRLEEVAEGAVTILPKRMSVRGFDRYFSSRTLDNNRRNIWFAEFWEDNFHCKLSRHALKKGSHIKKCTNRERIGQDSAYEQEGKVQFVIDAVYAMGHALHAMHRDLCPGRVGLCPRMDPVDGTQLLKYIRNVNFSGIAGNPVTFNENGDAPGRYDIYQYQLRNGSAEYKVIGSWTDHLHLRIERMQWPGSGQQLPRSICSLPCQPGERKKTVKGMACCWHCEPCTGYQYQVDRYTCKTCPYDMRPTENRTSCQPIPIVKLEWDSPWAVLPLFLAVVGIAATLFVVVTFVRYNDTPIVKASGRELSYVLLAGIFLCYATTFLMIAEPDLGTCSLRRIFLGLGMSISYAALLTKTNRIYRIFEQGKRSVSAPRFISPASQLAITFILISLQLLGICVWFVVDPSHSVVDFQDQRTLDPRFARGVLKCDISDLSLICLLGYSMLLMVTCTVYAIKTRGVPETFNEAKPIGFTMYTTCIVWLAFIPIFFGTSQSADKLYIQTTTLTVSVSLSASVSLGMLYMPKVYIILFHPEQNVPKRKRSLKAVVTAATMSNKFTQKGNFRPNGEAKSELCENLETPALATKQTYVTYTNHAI

Antagonist activity in rat mGlu4 thallium flux assay: confirmed to be active
Structure (SMILES): O=C(COc1ccccc1Br)c1ccc(Cl)nc1 [2e]
